Measurements published in PMC8074465, “Synthesis of oxadiazole-2-oxide derivatives as potential drug candidates for schistosomiasis targeting SjTGR” (Parasites & Vectors, 2021).
“And” between values parts separate entries of the source, which are not always exact repeats. Identical values can stand only once.

Molecular target: T1, rSjTGR-Sec (Schistosoma japonicum, UniProt B5THG7)
T1 sequence (B5THG7 1-596): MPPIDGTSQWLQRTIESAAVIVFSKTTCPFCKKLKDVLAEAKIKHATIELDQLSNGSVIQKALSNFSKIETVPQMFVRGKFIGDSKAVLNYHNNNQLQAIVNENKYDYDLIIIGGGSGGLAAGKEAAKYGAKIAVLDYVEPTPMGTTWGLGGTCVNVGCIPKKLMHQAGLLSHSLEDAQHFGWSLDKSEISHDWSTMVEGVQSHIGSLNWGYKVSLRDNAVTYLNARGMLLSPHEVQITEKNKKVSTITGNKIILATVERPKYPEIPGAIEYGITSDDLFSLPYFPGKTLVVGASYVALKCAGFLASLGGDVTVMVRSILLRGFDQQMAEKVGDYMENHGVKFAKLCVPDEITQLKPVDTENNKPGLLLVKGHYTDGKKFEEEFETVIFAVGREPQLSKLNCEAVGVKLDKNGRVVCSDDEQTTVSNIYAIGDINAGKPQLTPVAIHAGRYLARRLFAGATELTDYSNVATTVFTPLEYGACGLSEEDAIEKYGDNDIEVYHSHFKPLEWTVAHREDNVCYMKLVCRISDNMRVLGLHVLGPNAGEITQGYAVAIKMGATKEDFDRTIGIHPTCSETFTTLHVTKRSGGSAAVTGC
Assay: Inhibition of TrxR activity of rSjTGR-Sec (DTNB reduction, absorbance 412 nm)
Type: biochemical
Conditions: DTNB, pH 7.0, 25 °C, triplicate, >50 μM = flat response within range tested, read-out: IC50 of rSjTGR-Sec
Method: The rSjTGR-Sec was expressed and harvested as described previously. […] The rSjTGR-Sec was purified by His Mag™ Agarose beads according to manufacturer’s instructions. The concentration of purified rSjTGR-Sec was determined using a Bradford assay kit (Sangon, China), and the protein was identified by sodium dodecyl sulfate polyacrylamide gel electrophoresis (SDS-PAGE) and stored at 4 °C [20].
The novel furoxan derivatives in this work were dissolved in DMSO with a storage solution concentration of 64 millimoles per liter. The analysis of TrxR activity of SWAP containing wtSjTGR and rSjTGR-Sec was performed based on methods described previously. Analysis of the inhibitory activity of the compounds against the TrxR activity of SWAP containing wtSjTGR and rSjTGR-Sec described in this paper was also based on a previously described method. The reaction was performed in 0.1 M potassium phosphate buffer (pH 7.0) containing 10 mM EDTA, 100 µM nicotinamide adenine dinucleotide phosphate (NADPH), 0.2 µg supernatant of SWAP containing wtSjTGR or 0.6 µg rSjTGR-Sec, and the studied compounds with different concentrations at 25 °C in a final volume of 200 μL, and was initiated by adding 3 mM DTNB. […] All assays were done in triplicate.

SMILES	IC50
[O-][n+]1onc(-c2ccncc2)c1CO [6a, 3-(hydroxymethyl)-4-(pyridin-4-yl)-1,2,5-oxadiazole 2-oxide]	0.036 ± 0.002 µM
[O-][n+]1onc(-c2cccnc2)c1CO [6b, 3-(hydroxymethyl)-4-(pyridin-3-yl)-1,2,5-oxadiazole 2-oxide]	0.39 ± 0.02 µM
COc1ccc(-c2no[n+]([O-])c2CO)cn1 [6c, 3-(hydroxymethyl)-4-(6-methoxypyridin-3-yl)-1,2,5-oxadi-azole 2-oxide]	2.4 µM and 2.38 µM
[O-][n+]1onc(-c2ccc(C(F)(F)F)nc2)c1CO [6d, 3-(hydroxymethyl)-4-(6-(trifluoromethyl)pyridine-3-yl)-1,2,5-oxadiazole 2-oxide]	0.0558 ± 0.00318 µM
CC(=O)OCc1c(-c2ccncc2)no[n+]1[O-] [7aa, 3-(acetoxymethyl)-4-(pyridin-4-yl)-1,2,5-oxadiazole 2-oxide]	> 50 µM
CCC(=O)OCc1c(-c2ccncc2)no[n+]1[O-] [7ab, 3-((propionyloxy)methyl)-4-(pyridin-4-yl)-1,2,5-oxadiazole 2-oxide]	> 50 µM
CCCC(=O)OCc1c(-c2ccncc2)no[n+]1[O-] [7ac, 3-((butyryloxy)methyl)-4-(pyridin-4-yl)-1,2,5-oxadiazole 2-oxide]	> 50 µM
CC(C)(C)C(=O)OCc1c(-c2ccncc2)no[n+]1[O-] [7ad, 3-((pivaloyloxy)methyl)-4-(pyridin-4-yl)-1,2,5-oxadiazole 2-oxide]	> 50 µM
O=C(CCl)OCc1c(-c2ccncc2)no[n+]1[O-] [7ae, 3-((2-chloroacetoxy)methyl)-4-(pyridin-4-yl)-1,2,5-oxadiazole 2-oxide]	> 50 µM
O=C(OCc1c(-c2ccncc2)no[n+]1[O-])c1ccccc1 [7af, 3-((benzoyloxy)methyl)-4-(pyridin-4-yl)-1,2,5-oxadiazole 2-oxide]	3.23 ± 0.05 µM
O=C(OCc1c(-c2ccncc2)no[n+]1[O-])c1ccc(F)cc1 [7ag, 3-(((4-fluorobenzoyl)oxy)methyl)-4-(pyridin-4-yl)-1,2,5-oxadiazole 2-oxide]	> 50 µM
O=C(OCc1c(-c2ccncc2)no[n+]1[O-])c1c(F)c(F)c(F)c(F)c1F [7ah, 3-(((perfluorobenzoyl)oxy)methyl)-4-(pyridin-4-yl)-1,2,5-oxadiazole 2-oxide]	> 50 µM
O=C(OCc1c(-c2ccncc2)no[n+]1[O-])c1cc(C(F)(F)F)cc(C(F)(F)F)c1 [7ai, 3-(((3,5-bis(trifluoromethyl)benzoyl)oxy)methyl)-4-(pyridin-4-yl)-1,2,5-oxadiazole 2-oxide]	> 50 µM
CC(=O)OCc1c(-c2cccnc2)no[n+]1[O-] [7ba, 3-(acetoxymethyl)-4-(pyridin-3-yl)-1,2,5-oxadiazole 2-oxide]	> 50 µM
CCC(=O)OCc1c(-c2cccnc2)no[n+]1[O-] [7bb, 3-((propionyloxy)methyl)-4-(pyridin-3-yl)-1,2,5-oxadiazole 2-oxide]	> 50 µM
CCCC(=O)OCc1c(-c2cccnc2)no[n+]1[O-] [7bc, 3-((butyryloxy)methyl)-4-(pyridin-3-yl)-1,2,5-oxadiazole 2-oxide]	> 50 µM
CC(C)(C)C(=O)OCc1c(-c2cccnc2)no[n+]1[O-] [7bd, 3-((pivaloyloxy)methyl)-4-(pyridin-3-yl)-1,2,5-oxadiazole 2-oxide]	> 50 µM
O=C(CCl)OCc1c(-c2cccnc2)no[n+]1[O-] [7be, 3-((2-chloroacetoxy)methyl)-4-(pyridin-3-yl)-1,2,5-oxadiazole 2-oxide]	14.8 ± 3.67 µM
O=C(OCc1c(-c2cccnc2)no[n+]1[O-])c1ccccc1 [7bf, 3-((benzoyloxy)methyl)-4-(pyridin-3-yl)-1,2,5-oxadiazole 2-oxide]	> 50 µM
O=C(OCc1c(-c2cccnc2)no[n+]1[O-])c1ccc(F)cc1 [7bg, 3-(((4-fluorobenzoyl)oxy)methyl)-4-(pyridine-3-yl)-1,2,5-oxadiazole 2-oxide]	> 50 µM
O=C(OCc1c(-c2cccnc2)no[n+]1[O-])c1c(F)c(F)c(F)c(F)c1F [7bh, 3-(((perfluorobenzoyl)oxy)methyl)-4-(pyridine-3-yl)-1,2,5-oxadiazole 2-oxide]	> 50 µM
O=C(OCc1c(-c2cccnc2)no[n+]1[O-])c1cc(C(F)(F)F)cc(C(F)(F)F)c1 [7bi, 3-(((3,5-bis(trifluoromethyl)benzoyl)oxy)methyl)-4-(pyridin-3-yl)-1,2,5-oxadiazole 2-oxide]	> 50 µM
C=CC(=O)OCc1c(-c2cccnc2)no[n+]1[O-] [7bj, 3-((acryloyloxy)methyl)-4-(pyridin-3-yl)-1,2,5-oxadiazole 2-oxide]	> 50 µM
O=C(OCc1c(-c2cccnc2)no[n+]1[O-])c1cccs1 [7bk, 4-(pyridin-3-yl)-3-(((thiophene-2-carbonyl)oxy)methyl) -1,2,5-oxadiazole 2-oxide]	> 50 µM
COc1ccc(-c2no[n+]([O-])c2COC(C)=O)cn1 [7ca, 3-(acetoxymethyl)-4-(6-methoxypyridin-3-yl)-1,2,5-oxadiazole 2-oxide]	> 50 µM
COc1ccc(-c2no[n+]([O-])c2COC(=O)c2ccccc2)cn1 [7cf, 3-((benzoyloxy)methyl)-4-(6-methoxypyridin-3-yl)-1,2,5-oxadiazole 2-oxide]	> 50 µM
CC(=O)OCc1c(-c2ccc(C(F)(F)F)nc2)no[n+]1[O-] [7da, 3-(acetoxymethyl)-4-(6-(trifluoromethyl)pyridin-3-yl)-1,2,5-oxadiazole 2-oxide]	> 50 µM
O=C(OCc1c(-c2ccc(C(F)(F)F)nc2)no[n+]1[O-])c1ccccc1 [7df, 3-((benzoyloxy)methyl)-4-(6-(trifluoromethyl)pyridin-3-yl)-1,2,5-oxadiazole 2-oxide]	> 50 µM

Other lines, results leading:

IC50	SMILES
> 50 µM	[O-][n+]1onc(-c2ccncc2)c1CNc1ccccc1 [9aa, 3-((phenylamino)methyl)-4-(pyridin-4-yl)-1,2,5-oxad-iazole 2-oxide]
1.52 ± 0.2 µM	[O-][n+]1onc(-c2ccncc2)c1CNc1ccc(OC(F)(F)F)cc1 [9ab, 4-(pyridin-4-yl)-3-(((4-(trifluoromethoxy)phenyl)amino)methyl)-1,2,5-oxadiazole 2-oxide]
> 50 µM	[O-][n+]1onc(-c2ccncc2)c1CN1CCN(c2ccc(F)cc2)CC1 [9ac, 3-((4-(4-fluorophenyl)piperazin-1-yl)methyl)-4-(pyridin-4-yl)-1,2,5-oxadiazole 2-oxide]
> 50 µM	[O-][n+]1onc(-c2ccncc2)c1CN1CCN(c2cccc(C(F)(F)F)c2)CC1 [9ad, 4-(pyridin-4-yl)-3-((4-(3-(trifluoromethyl)phenyl)piperazin-1-yl)methyl)-1,2,5-oxadiazole 2-oxide]
> 50 µM	[O-][n+]1onc(-c2cccnc2)c1CNc1ccccc1 [9ba, 3-((phenylamino)methyl)-4-(pyridin-3-yl)-1,2,5-oxadiazole 2-oxide]
> 50 µM	[O-][n+]1onc(-c2cccnc2)c1CNc1ccc(OC(F)(F)F)cc1 [9bb, 4-(pyridin-3-yl)-3-(((4-(trifluoromethoxy)phenyl)amino)methyl)-1,2,5-oxadiazole 2-oxide]
> 50 µM	[O-][n+]1onc(-c2cccnc2)c1CN1CCN(c2ccc(F)cc2)CC1 [9bc, 3-((4-(4-fluorophenyl)piperazin-1-yl)methyl)-4-(pyridin-3-yl)-1,2,5-oxadiazole 2-oxide]
> 50 µM	COc1ccc(-c2no[n+]([O-])c2CNc2ccccc2)cn1 [9ca, 4-(6-methoxypyridin-3-yl)-3-((phenylamino)methyl)-1,2,5-oxadiazole 2-oxide]
3.73 ± 1.67 µM	[O-][n+]1onc(-c2ccc(C(F)(F)F)nc2)c1CNc1ccccc1 [9da, 3-((phenylamino)methyl)-4-(6-(trifluoromethyl)pyridin-3-yl)-1,2,5-oxadiazole 2-oxide]

Same assay, conditions: IC50 of rSjTGR-Sec, DTNB, pH 7.0, 25 °C, triplicate, >50 μM = flat response within range tested

SMILES	IC50 [µM]
Cc1ccc(S(=O)(=O)N(Cc2c(-c3cccnc3)no[n+]2[O-])O[Si](C)(C)C(C)(C)C)cc1 [9be, 3-(((N-((tert-butyldimethylsilyl)oxy)-4-methylphenyl)sulfonamido)methyl)-4-(pyridin-3-yl)-1,2,5-oxadiazole 2-oxide]	0.22 ± 0.01
N#Cc1c(-c2ccccc2)no[n+]1[O-] [Furoxan, reference compound]	5.87 ± 1.37

Same assay, conditions: furoxan as positive control

SMILES	inhibitory effect on rSjTGR-Sec (in words)
O=C(CCl)OCc1c(-c2ccncc2)no[n+]1[O-] [7ae, 3-((2-chloroacetoxy)methyl)-4-(pyridin-4-yl)-1,2,5-oxadiazole 2-oxide]	did not show an effective inhibitory effect
COc1ccc(-c2no[n+]([O-])c2COC(=O)c2ccccc2)cn1 [7cf, 3-((benzoyloxy)methyl)-4-(6-methoxypyridin-3-yl)-1,2,5-oxadiazole 2-oxide]	did not show an inhibitory effect

Same assay, conditions: read-out: IC50 of rSjTGR-Sec

IC50	SMILES
0.036 µM	[O-][n+]1onc(-c2ccncc2)c1CO [6a, 3-(hydroxymethyl)-4-(pyridin-4-yl)-1,2,5-oxadiazole 2-oxide]
0.0075 µM and 0.0558 µM	[O-][n+]1onc(-c2ccc(C(F)(F)F)nc2)c1CO [6d, 3-(hydroxymethyl)-4-(6-(trifluoromethyl)pyridine-3-yl)-1,2,5-oxadiazole 2-oxide]
